Test results taken from patent publication US9233067B2, “Silk particles for controlled and sustained delivery of compounds” (Amsilk GmbH, priority 2009, dated 2016).
“Also recorded” adds a separate entry of the source. Structures can show the parent of a compound that is named as a salt.

What was measured:
[1] = Properties of small molecular weight model drugs (Table 1); assay type: physicochemical; details: for Predominant charge at pH7: pH 7, aqueous media
Procedure: All drugs were dissolved in water at a concentration of 0.21 μmol/ml. Drug substances and their featured properties are depicted in Table 1. The main selection criteria were solubility in aqueous media (expressed by the octanol/water partition coefficient (log P)), the acidic dissociation constant (pKa for protonated bases (BH+) or for acids (HA)) and the resulting net-charge in aqueous media (predominant or permanent charge).

[2] = Calculated apparent distribution coefficient (log D); details: pH 7; calculated from log P and pKa
Description: Further, the distribution between a hydrophobic and a hydrophilic phase of two different species of a specific drug, i.e. the native and the protonated form, can be described by its apparent distribution coefficient (log D), which can be calculated with equations (3) and (4) respectively. for acids: log D=log P−log(1+10^pH-pKa) (3) for bases: log D=log P−log(1+10^pKa-pH) (4)

[3] = cited from earlier work; for log P: octanol/water, individual unprotonated forms; for Dissociation constant of BH^+(pKa): protonated base
[4] = In vitro release from drug loaded eADF4(C16) particles; assay type: physicochemical; details: power law fit
Procedure: Drug loaded eADF4(C16) particles were washed with distilled water and suspended in 1 ml PBS (pH 7.4) before incubation at 37° C. with constant shaking. Each vial contained 2 mg of drug loaded particles containing […] spider silk protein. The solvent was periodically removed from each sample and replaced with fresh PBS (pH 7.4). The drug content in the medium was then analyzed using UV-Vis-spectrometry. The percentage of cumulative model drug release (% w/w) was investigated as a function of incubation time. Each experiment was performed in triplicate. To study the effect of different pH values on the release behaviour of drug loaded eADF4(C16) particles, 1 mg drug loaded silk particles were incubated in 1.0 ml PBS at 5 different pH values (pH 2, 4, 6, 7.4 and 8.8) for 5 days. The solvent was withdrawn daily and the particles were redispersed in fresh media. Supernatants of drawn samples were analyzed for drug content determination with UV-Vis-spectrometry.
[formula] where Mt/M∞ is the fractional amount of the drug released at time t, k is a characteristic constant of the system, and exponent n is related to the geometrical shape of the formulation and is indicative of the mechanism of drug release. The semi-empirical power law can be seen as a generalization of two independent mechanisms of drug transport, Fickian diffusion and Case II transport, reflecting the influence of polymer relaxation on molecules' movement in the matrix. For spherical systems the limiting value of n, when pure Fickian diffusion or pure Case II transport is operating, were determined to be equal to 0.43 and 0.85, respectively. When n is between 0.43 and 0.85, a superposition of both transport processes occurs which is known as anomalous transport. In order to obtain a linear fit for the drug release data, equation (5) was modified leading to equation (6),
[formula] where n can be calculated from the slope of the log-log plot of release Mt/M∞ versus time t by linear fitting (FIG. 4d). Therefrom, three time intervals with different dominating release mechanisms could be identified excluding the initial burst region (<24 h). To distinguish between different time intervals, the criterion that the coefficient r2 had to be above 0.99 for the individual linear fits was employed. For validation of the determined release parameters, the experimental release data were compared with theoretical data obtained by the semi-empirical power law employing the determined values for k and n. A very good agreement from post-initial burst stage (>24 hours) up to 100% release was obtained (FIG. 4 a). Since only release data after 24 hours were considered for calculation of release parameters (k and n), the initial burst is underestimated by theoretical data (FIG. 4 b).

Zeta potential analysis = assay type: physicochemical; details: lysozyme loading up to 30%; pH 7.0/30 mM
Procedure: In order to elucidate and characterize the loading mechanism of eADF4(C16) particles with model drugs, zeta potential measurements were conducted as a function of amount of model drug added. The zeta potential was determined using a Nanoseries Malvern Zetasizer (Malvern, Worcestershire, UK). Automatic titration was conducted with a Malvern Multipurpose Titrator MPT-2. Experiments were performed in distilled water (pH 7) at 25° C. Each measurement was performed in triplicate.

[5] = Particle size of lysozyme loaded C16 spider silk particles (dynamic light scattering); assay type: physicochemical; details: particles loaded with approximately 10% [w/w] lysozyme
Procedure: The loading procedure as applied in example 6 was modulated and implemented as follows: A stock dispersion of spider silk particles was centrifuged and redispersed in the desired buffer media before loading. A second stock solution comprising lysozyme was prepared by dissolving lyophilized lysozyme in an identical buffer solution. […] After 30 minutes of incubation at room temperature under gentle agitation, 20 μl of the resulting particle suspension were used for dynamic light scattering measurements. Simultaneously, samples were centrifuged and the supernatant was analyzed for residual protein content using the Micro BCA Protein Assay Kit (Thermo Scientific). Encapsulation efficiencies and loading were determined according to example 6 by using equation (1) and (2), respectively.

[6] = pH of 7.0; cited from earlier work

Compound | Permanently charged [1] | Predominant charge at pH7 [1] | log D [2] | log P [3] | Dissociation constant of BH^+(pKa) [3] | further results
CN[C@@H](C)[C@H](O)c1ccccc1 [Ephedrine*HCl, Ephedrine] | no | positive | −1.321 | 1.30 |  | 
CCOc1ccc2nc3cc(N)ccc3c(N)c2c1 [Ethacridine lactate] | no | positive | 2.899 | 2.50 | 11.00 | k (characteristic constant) ([4]; time 0-13 d): 1.25; n (release exponent) ([4]; time 0-13 d): 00.6754; n (release exponent) ([4]; time 0-13 d, listed as ethacridine lactate): 0.6754; k (characteristic constant) ([4]; time 14-20 d): 3.18; n (release exponent) ([4]; time 14-20 d): 0.5083; n (release exponent) ([4]; time 14-20 d, listed as ethacridine lactate): 0.51; k (characteristic constant) ([4]; time >20 d): 14.4; n (release exponent) ([4]; time >20 d): 0.2641
COc1ccc(Cc2nccc3cc(OC)c(OC)cc23)cc1OC [Papaverine*HCl, Papaverine] | no | positive | 2.395 | 3.50 | 8.07 | 
O=S1(=O)OC(c2ccc(O)cc2)(c2ccc(O)cc2)c2ccccc21 [Phenol red] |  |  |  | 3.00 |  | 
CCN(CC)CCOC(=O)c1ccc(N)cc1 [Procaine*HCl, Procaine] | no | positive | 0.396 | 2.40 | 8.05 | 
CC(C)NCC(O)COc1cccc2ccccc12 (stereo not drawn) [Propranolol*HCl, Propranolol] | no | positive |  |  |  | 
CCCCNc1ccc(C(=O)OCCN(C)C)cc1 [Tetracaine*HCl, Tetracaine] | no | positive | 2.773 | 4.00 |  | 
Lysozyme: protein compound with an isoelectric point of 11.35 and a molecular weight of 14.3 kDa |  |  |  |  |  | change in the zeta-potential of particles (Zeta potential analysis): did not show a significant change; particle size compared to unloaded spider silk particles [5]: no increase in size; also recorded: did not differ; net charge [6]: positive
Methyl violet | yes | positive |  | 3.20 |  | k (characteristic constant) ([4]; time 0-13 d): 1.17; n (release exponent) ([4]; time 0-13 d): 0.692; k (characteristic constant) ([4]; time 14-20 d): 1.92; n (release exponent) ([4]; time 14-20 d): 0.6079; n (release exponent) ([4]; time 14-20 d, listed as methyl violet): 0.61; k (characteristic constant) ([4]; time >20 d): 9.20; n (release exponent) ([4]; time >20 d): 0.3537
Nerve growth factor: protein with an isoelectric point of 9.5 and a molecular weight of 13 kDa |  |  |  |  |  | net charge [6]: positively charged
